Where “and” joins values, the source holds several entries; their conditions need not be identical. Equal values may be shown once.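 Step 1: Grow cells in 96-well plates. Step 2: Expose to compound for 48 hours at 5 concentrations. Step 3: Interpolate endpoints linearly; if unreached, use highest concentration. Here, GI50 denotes the concentration required for 50% inhibition of growth. TGI: concentration producing complete growth inhibition.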
What was measured:
Test in all cases: DTP human tumour cell line panel, 48 h
SNB-75 CNS = system: SNB-75 CNS
OVCAR-4 ovarian = system: OVCAR-4 ovarian
HCC-2998 colon = system: HCC-2998 colon
IGROV1 ovarian = system: IGROV1 ovarian
SNB-19 CNS = system: SNB-19 CNS
A549 NSCLC = system: A549 NSCLC
SR leukemia = system: SR leukemia
HCT-116 colon = system: HCT-116 colon
SNB-78 CNS = system: SNB-78 CNS
M19-MEL melanoma = system: M19-MEL melanoma
XF 498 CNS = system: XF 498 CNS

| Structure (SMILES) | TGI (SNB-75 CNS) | TGI (OVCAR-4 ovarian) | TGI (HCC-2998 colon) | TGI (IGROV1 ovarian) | TGI (SNB-19 CNS) | TGI (A549 NSCLC) | TGI (SR leukemia) | TGI (HCT-116 colon) | TGI (SNB-78 CNS) | TGI (M19-MEL melanoma) | TGI (XF 498 CNS) | GI50 (SNB-75 CNS) | GI50 (OVCAR-4 ovarian) | GI50 (HCC-2998 colon) | GI50 (IGROV1 ovarian) | GI50 (SNB-19 CNS) | GI50 (A549 NSCLC) | GI50 (SR leukemia) | GI50 (HCT-116 colon) |
| --- | --- | --- | --- | --- | --- | --- | --- | --- | --- | --- | --- | --- | --- | --- | --- | --- | --- | --- | --- |
| COc1ccc(C(=O)/C=C/c2ccc3c(c2)OCO3)c(OCc2ccccc2)c1 | > 100 µM | > 61 µM | > 100 µM | > 100 µM | > 100 µM | > 100 µM | > 27.1 µM | > 100 µM | – | – | – | – | – | – | – | – | – | – | – |
| Cc1cc(NS(=O)(=O)c2ccc(NC(=O)c3ccc(Cl)c4c(Nc5ccc(S(=O)(=O)N=C(N)N)cc5)c5ccccc5nc34)cc2)no1 | 95.6 µM | > 100 µM | 41.6 µM | – | > 100 µM | – | 67.9 µM | > 100 µM | > 100 µM | > 100 µM | 98.8 µM | – | – | – | – | – | – | – | – |
| COc1cc(Cl)cc(-c2nn(-c3cccc(NC(=O)Nc4cc(C(F)(F)F)cc(C(F)(F)F)c4)c3)cc2-c2ccncc2)c1 | 6.86 µM | 17.5 µM | 5.42 µM | 13.4 µM | 12.7 µM | 5.62 µM | 3.51 µM | 1.46 µM | – | – | – | 1.18 µM | 0.581 µM | 0.963 µM | 0.669 µM | 0.612 µM | 0.386 µM | 0.439 µM | 0.356 µM |
| O=C(Nc1ccc2[nH]c(=S)sc2c1)Nc1ccccc1F | > 100 µM | > 100 µM | > 100 µM | > 100 µM | > 100 µM | > 100 µM | > 100 µM | > 100 µM | – | – | – | 22.9 µM | 21 µM | 30.6 µM | 3.58 µM | 41.8 µM | 51.2 µM | 17.5 µM | 37.7 µM |
| O=C(NCCCCCCNC(=O)OCCSCCn1cc(C(=O)NC(=O)OCc2ccccc2)c(=O)[nH]c1=O)OCCSCCn1cc(C(=O)NC(=O)OCc2ccccc2)c(=O)[nH]c1=O | – | > 100 µM | > 100 µM | > 100 µM | > 100 µM | > 100 µM | – | – | > 100 µM | > 100 µM | > 100 µM | – | – | – | – | – | – | – | – |
| NC1=C(c2nc(-c3ccccc3)cs2)C(c2ccc(Br)cc2)c2c(c3ccccc3oc2=O)O1 (stereo not given) | 36.7 µg/mL | 99.9 µg/mL | > 150 µg/mL | > 150 µg/mL | > 150 µg/mL | > 150 µg/mL | > 150 µg/mL | > 150 µg/mL | – | – | – | 2.39 µg/mL | 34.3 µg/mL | 130 µg/mL | 96 µg/mL | 58.3 µg/mL | 46 µg/mL | 55.2 µg/mL | 79.6 µg/mL |
| Nc1c([N+](=O)[O-])cc2c3c(cccc13)CC2 | > 100 µM | > 100 µM | > 100 µM | > 100 µM | > 100 µM | > 100 µM | > 100 µM | > 100 µM | – | – | – | – | – | – | – | – | – | – | – |
| O=C1C=CC[C@H](/C=C/c2ccccc2)O1 | 4.69 µM | 10.7 µM | 3.42 µM | 26.5 µM | 22.6 µM | > 100 µM | > 100 µM | 13.9 µM | – | – | – | 0.394 µM | 1.39 µM | 0.642 µM | 5.44 µM | 3.61 µM | 3.56 µM | 2.78 µM | 1.72 µM |
| COc1cc(NC(=O)CSc2nc3ccc(C)cc3c(=O)n2Cc2ccccc2)cc(OC)c1OC | 4.33 µM | 33.3 µM | > 100 µM | > 100 µM | > 100 µM | > 100 µM | > 100 µM | > 100 µM | – | – | – | 1.82 µM | 3.41 µM | > 100 µM | 32.5 µM | 21.4 µM | 10.5 µM | 52.7 µM | 3.38 µM |
| COc1cc2c(cc1OCCCCCOc1ccc(-n3c(C)nc4ccccc4c3=O)cc1)N=C[C@@H]1CCCN1C2=O | 3.43 µM | 13.2 µM | 0.685 µM | 0.64 µM | – | 0.982 µM | 0.393 µM | 0.327 µM | – | – | – | 0.408 µM | 0.515 µM | 0.256 µM | 0.182 µM | 1 µM | 0.276 µM | 0.11 µM | 0.167 µM |
| COC(=O)NN=C1C(C)(C)C(=O)C1(C)C | > 100 µM | – | > 100 µM | > 100 µM | – | > 100 µM | – | > 100 µM | > 100 µM | – | > 100 µM | – | – | – | – | – | – | – | – |
| COc1ccccc1N1CCN(CCc2c[nH]c3cc4c(cc23)OCO4)CC1 | > 100 µM | > 100 µM | 32.6 µM | > 100 µM | > 100 µM | > 100 µM | 99 µM | > 100 µM | – | – | – | 25 µM | 37.7 µM | 16.5 µM | 40.2 µM | 26 µM | 31 µM | 23.8 µM | 10.9 µM |
| CC1(O)CC(c2nc(-c3ccc4ccc(-c5ccccc5)nc4c3)c3c(N)nccn23)C1 (stereo not given) | 43.2 µM and > 10 µM | > 95 µM | 27.3 µM and > 10 µM | > 100 µM | > 100 µM | > 100 µM | > 75.2 µM | 26.7 µM and > 10 µM | – | – | – | 4.62 µM and 5.57 µM | 7.5 µM and > 10 µM | 6.71 µM and > 10 µM | 19.1 µM and > 10 µM | 19.8 µM and > 10 µM | 10.5 µM and > 10 µM | 15.7 µM and 7.92 µM | 7.32 µM and 5.29 µM |
| Cc1cc(NCc2cc(Nc3ccnc4cc(Cl)ccc34)ccc2F)nc(N2CCN(C)CC2)n1 | 3.16 µM | 8.57 µM | 4.35 µM | 5.76 µM | 12.9 µM | 10.9 µM | 1.03 µM | 2.88 µM | – | – | – | 1.21 µM | 1.56 µM | 2.09 µM | 2.08 µM | 2.72 µM | 3.07 µM | 0.245 µM | 1.25 µM |
| CN(C)CC1C(=O)O[C@H]2[C@H]1CC/C(COC(=O)c1cc3ccccc3[nH]1)=C\CC[C@@]1(C)O[C@@H]21 (stereo not given in full) | 10.4 µM | 3.68 µM | 3.58 µM | 4.62 µM | 25.9 µM | 14.3 µM | 9.89 µM | 1.57 µM | – | – | – | 2.18 µM | 1.57 µM | 1.78 µM | 1.97 µM | 11.4 µM | 4.62 µM | 1.55 µM | 0.577 µM |
| O=C1C2C=CC(C2)C(c2ccc(O)cc2)N1O (stereo not given) | > 100 µM | > 100 µM | > 100 µM | > 100 µM | > 100 µM | > 100 µM | > 100 µM | > 100 µM | > 100 µM | > 100 µM | > 100 µM | – | – | – | – | – | – | – | – |
